In assay [1] the target is T1, ABA-1A (rABA-1A, RP-ABA-1A; As-NPA-1A) (Ascaris suum, UniProt Q06811). Put plainly: fluorescence blue-shift of probe. The settings on record: PBS pH 7.3, 25 °C, data not shown. The assay is classed as binding.
The target in assay [2] is T1, ABA-1A (rABA-1A, RP-ABA-1A; As-NPA-1A). Put plainly: fluorescence titration (probe enhancement, […] nm). It counts as binding.

pKd: −log10 of the molar value.

T1 sequence (Q06811 534-662): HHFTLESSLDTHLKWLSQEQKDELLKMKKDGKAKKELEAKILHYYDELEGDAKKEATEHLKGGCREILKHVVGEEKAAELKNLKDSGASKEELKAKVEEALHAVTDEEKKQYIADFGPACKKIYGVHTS

As to `CCCCCCC(NS(=O)(=O)c1cccc2c(N(C)C)cccc12)C(=O)O` (racemic) [DACA, dansyl-α-aminooctanoic acid], the “fluorescence blue-shift of probe” value in assay [1] is “A similar blue-shift (data not shown) was observed using dansyl-DL-α-caprylic acid (DACA)”.

Regarding `CN(C)c1cccc2c(S(=O)(=O)NCCCCCCCCCCC(=O)O)cccc12` [DAUDA, 11-(((5-(dimethylamino)-1-napthalenyl)sulfonyl)amino)undecanoic acid], in assay [2], the pKd was 6.96.

What is called pKd is the Kd on a negative log10 scale, so that one unit is a factor of ten.

Source of the values: article PMC3079579, “Solution Structure of a Repeated Unit of the ABA-1 Nematode Polyprotein Allergen of Ascaris Reveals a Novel Fold and Two Discrete Lipid-Binding Sites” (PLoS Neglected Tropical Diseases, 2011).
